3 molecules from ChEMBL document CHEMBL1127443 (J Med Chem, 1994) can be followed below.

The structures appear in SMILES notation.

The target in assay [1] is T1, 5-hydroxytryptamine receptor 1D (Homo sapiens, UniProt P28221). The assay can be described thus: Compound was evaluated for its agonistic activity on 5-hydroxytryptamine 1D receptor. Format: functional.
The target of assay [2] is T2, Serotonin 3 (5-HT3) receptor (Rattus norvegicus, UniProt P35563+Q9JJ16).
T2 sequence (P35563 whole entry): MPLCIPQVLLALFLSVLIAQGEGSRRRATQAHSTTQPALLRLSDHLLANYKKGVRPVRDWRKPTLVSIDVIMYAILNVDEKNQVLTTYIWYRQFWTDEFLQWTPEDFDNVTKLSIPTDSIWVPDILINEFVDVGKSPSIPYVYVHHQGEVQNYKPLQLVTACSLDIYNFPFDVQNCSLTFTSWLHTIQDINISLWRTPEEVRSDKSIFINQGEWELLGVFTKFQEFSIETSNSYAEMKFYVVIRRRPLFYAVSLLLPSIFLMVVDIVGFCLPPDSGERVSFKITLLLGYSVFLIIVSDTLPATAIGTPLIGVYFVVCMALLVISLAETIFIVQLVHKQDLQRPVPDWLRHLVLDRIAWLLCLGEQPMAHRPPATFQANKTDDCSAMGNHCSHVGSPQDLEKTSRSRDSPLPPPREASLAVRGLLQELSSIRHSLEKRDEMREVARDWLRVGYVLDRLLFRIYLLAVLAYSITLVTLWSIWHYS
T2 sequence (Q9JJ16 whole entry): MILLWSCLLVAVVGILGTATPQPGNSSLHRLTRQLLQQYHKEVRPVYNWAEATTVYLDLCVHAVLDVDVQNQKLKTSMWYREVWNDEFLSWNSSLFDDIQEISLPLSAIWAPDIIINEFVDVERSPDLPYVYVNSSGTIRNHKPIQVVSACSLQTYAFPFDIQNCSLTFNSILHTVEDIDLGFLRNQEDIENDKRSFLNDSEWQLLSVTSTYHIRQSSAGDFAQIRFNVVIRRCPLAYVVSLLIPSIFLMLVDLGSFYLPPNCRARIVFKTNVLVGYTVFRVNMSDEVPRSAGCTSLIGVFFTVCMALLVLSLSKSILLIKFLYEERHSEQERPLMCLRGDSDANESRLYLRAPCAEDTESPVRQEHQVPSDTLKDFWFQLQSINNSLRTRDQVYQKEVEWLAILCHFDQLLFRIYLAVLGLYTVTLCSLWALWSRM
The assay can be described thus: Binding affinity was measured on 5-hydroxytryptamine 3 receptor in NG-108 cells labeled with [3H]GR-65630. Format: cell-based.

The target of assay [3] is T3, 5-hydroxytryptamine receptor 2C (Rattus norvegicus, UniProt P08909).
T3 sequence (P08909 whole entry): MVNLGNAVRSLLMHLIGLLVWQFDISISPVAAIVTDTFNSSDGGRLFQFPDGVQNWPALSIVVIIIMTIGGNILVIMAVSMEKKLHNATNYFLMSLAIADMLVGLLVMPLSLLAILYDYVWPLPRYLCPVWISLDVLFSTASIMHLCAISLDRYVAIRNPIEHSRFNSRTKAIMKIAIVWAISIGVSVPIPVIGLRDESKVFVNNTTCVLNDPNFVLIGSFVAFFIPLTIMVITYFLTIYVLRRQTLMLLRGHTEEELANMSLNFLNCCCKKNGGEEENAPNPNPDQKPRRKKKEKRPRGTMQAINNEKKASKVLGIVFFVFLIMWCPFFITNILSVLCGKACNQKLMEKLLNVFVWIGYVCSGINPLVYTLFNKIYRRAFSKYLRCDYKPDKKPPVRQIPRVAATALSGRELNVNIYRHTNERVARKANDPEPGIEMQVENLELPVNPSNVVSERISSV
The assay is described as follows: Binding affinity was measured on 5-hydroxytryptamine 2C receptor in J1 cells transfected with rat 5-HT2C gene labeled with [3H]mesulergine. Format: cell-based.

Assay [4] has as its target 5-hydroxytryptamine receptor 1B (Rattus norvegicus, UniProt P28564). The assay can be described thus: Binding affinity was measured on 5-hydroxytryptamine 1B receptor in rat striatum labeled with [3H]5-HT. Format: tissue-based.
Assay [5] concerns the target 5-hydroxytryptamine receptor 2A (Homo sapiens, UniProt P28223). The assay can be described thus: biochemical. Format: cell-based, GF6.
The target in assay [6] is T1, 5-hydroxytryptamine receptor 1D. The assay can be described thus: Binding affinity was measured on 5-hydroxytryptamine 1D receptor alpha in COS cells transfected with human 5-HT1D alpha gene labeled with [3H]5-HT. Format: cell-based.

T1 sequence (P28221 whole entry): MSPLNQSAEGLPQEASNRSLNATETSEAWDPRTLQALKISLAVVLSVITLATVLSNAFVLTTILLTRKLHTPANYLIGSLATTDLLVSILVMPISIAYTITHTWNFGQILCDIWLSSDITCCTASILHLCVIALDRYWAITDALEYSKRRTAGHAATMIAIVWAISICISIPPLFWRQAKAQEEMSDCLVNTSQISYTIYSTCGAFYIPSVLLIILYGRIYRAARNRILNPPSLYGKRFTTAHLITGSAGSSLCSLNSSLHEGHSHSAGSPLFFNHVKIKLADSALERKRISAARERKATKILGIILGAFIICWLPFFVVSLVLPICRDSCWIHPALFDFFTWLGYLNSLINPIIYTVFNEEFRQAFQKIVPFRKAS
Chain of 5-hydroxytryptamine receptor 1B (P28564 whole entry): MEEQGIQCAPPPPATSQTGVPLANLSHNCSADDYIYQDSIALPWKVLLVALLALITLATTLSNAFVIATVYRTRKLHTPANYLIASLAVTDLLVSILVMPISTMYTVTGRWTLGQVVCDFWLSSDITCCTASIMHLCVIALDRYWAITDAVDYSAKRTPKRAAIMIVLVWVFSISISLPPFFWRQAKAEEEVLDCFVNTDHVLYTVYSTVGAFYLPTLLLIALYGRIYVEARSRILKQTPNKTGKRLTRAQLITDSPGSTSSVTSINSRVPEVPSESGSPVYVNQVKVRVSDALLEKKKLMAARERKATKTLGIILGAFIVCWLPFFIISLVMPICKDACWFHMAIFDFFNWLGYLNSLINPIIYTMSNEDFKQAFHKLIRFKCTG
Chain of 5-hydroxytryptamine receptor 2A (P28223 whole entry): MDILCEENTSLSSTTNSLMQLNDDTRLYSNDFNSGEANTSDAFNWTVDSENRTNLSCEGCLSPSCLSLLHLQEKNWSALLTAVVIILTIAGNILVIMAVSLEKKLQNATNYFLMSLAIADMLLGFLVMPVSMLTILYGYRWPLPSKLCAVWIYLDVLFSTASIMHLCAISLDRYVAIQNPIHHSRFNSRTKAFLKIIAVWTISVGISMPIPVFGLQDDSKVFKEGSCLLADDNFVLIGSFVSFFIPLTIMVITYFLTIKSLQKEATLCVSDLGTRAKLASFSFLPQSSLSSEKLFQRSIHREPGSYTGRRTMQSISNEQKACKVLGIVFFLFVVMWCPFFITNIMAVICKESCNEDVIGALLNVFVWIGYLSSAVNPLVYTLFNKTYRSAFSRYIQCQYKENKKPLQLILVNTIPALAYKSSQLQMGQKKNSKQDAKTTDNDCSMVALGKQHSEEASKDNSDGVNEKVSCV

In turn, `NCCc1c[nH]c2ccc(O)cc12` showed an ED50 in assay [1] of 1.2 nM.

Regarding `CNS(=O)(=O)Cc1ccc2[nH]cc(CCN(C)C)c2c1`, in assay [1], the ED50 turned out to be 317 nM. Moreover, the Ki in assay [2] and in assay [3] was greater than 1000 nM each time.

On to `CCCCCCCCCOc1ccc2[nH]cc(CCN)c2c1`, for which the Ki in assay [4] was 13 nM; in assay [5], 260 nM; in assay [6], 16 nM; in assay [2], greater than 1000 nM; in assay [3], 270 nM. In assay [1], this molecule gave an ED50 of 68 nM.

Usually Ki stands for a dissociation constant, usually derived from enzyme kinetics or from competition with a known ligand.
